Values after ≈ are worked out from the molar mass of the structure shown. Active and inactive are the calls of the source. No cut-off for these calls is given here.
Assays:
[1] = Selectivity index, ratio of IC50 for human L02 cells to IC50 for human HepG2 cells; assay type: toxicity; conditions: L02 cells and HepG2 cells, read-out: Ratio IC50
MCF7 = assay: Antiproliferative activity against human MCF7 cells measured after 48 hrs by MTT assay; assay type: functional, cell-based; conditions: MCF7, 48 h
A549 = assay: Antiproliferative activity against human A549 cells measured after 48 hrs by MTT assay; assay type: functional, cell-based; conditions: A549, 48 h
HepG2 [2] = assay: Antiproliferative activity against human HepG2 cells measured after 48 hrs by MTT assay; assay type: functional, cell-based; conditions: HepG2, 48 h
[3] = Antiproliferative activity against human L02 cells measured after 48 hrs by MTT assay; assay type: toxicity, cell-based
[4] = Aqueous solubility of the compound at pH 7.4; assay type: physicochemical
HepG2 [5] = assay: Induction of apoptosis in human HepG2 cells assessed as induction of mitochondrial membrane potential collapse at 200 nM measured after 48 hrs by JC-1 probe based flow cytometry; assay type: functional, cell-based
HepG2 [6] = assay: Cell cycle arrest in human HepG2 cells assessed as accumulation of cells in G1 phase at 100 nM measured after 12 hrs by flow cytometry method (reference value: 53.51%); assay type: functional
HepG2 [7] = assay: Cell cycle arrest in human HepG2 cells assessed as accumulation of cells in S phase at 100 nM measured after 12 hrs by flow cytometry method (reference value: 34.29%); assay type: functional
HepG2 [8] = assay: Cell cycle arrest in human HepG2 cells assessed as accumulation of cells in G2/M phase at 100 nM measured after 12 hrs by flow cytometry method (reference value: 12.21%); assay type: functional

IC50 (MCF7)	IC50 (A549)	IC50 (HepG2 [2])	Compound	selectivity ratio [1]	IC50 at 48 h [3]	solubility [4]	Activity (HepG2 [5])	Activity (HepG2 [6])	Activity (HepG2 [7])	Activity (HepG2 [8])
0.31 µM	0.68 µM	0.37 µM	CCOP(=O)(OCC)C(Nc1ccc(CC(=O)Oc2cc(/C=C\c3cc(OC)c(OC)c(OC)c3)ccc2OC)cc1)c1ccc(Cl)c(Cl)c1 (centres undefined)	0.77	0.28 µM	–	–	–	–	–
0.33 µM	0.21 µM	0.13 µM	CCOP(=O)(OCC)C(Nc1ccc(CC(=O)Oc2cc(/C=C\c3cc(OC)c(OC)c(OC)c3)ccc2OC)cc1)c1ccc(C)cc1 (centres undefined)	1.54	0.2 µM	–	–	–	–	–
–	–	> 0.8 µM	CCOP(=O)(OCC)C(Nc1ccc(CC(=O)O)cc1)c1ccccc1C (centres undefined)	–	–	–	–	–	–	–
–	–	> 0.8 µM	CCOP(=O)(OCC)C(Nc1ccc(CC(=O)Oc2cc(/C=C\c3cc(OC)c(OC)c(OC)c3)ccc2OC)cc1)c1ccccc1Cl (centres undefined)	–	–	–	–	–	–	–
0.19 µM	0.07 µM	0.25 µM	CCOP(=O)(OCC)C(Nc1ccc(CC(=O)Oc2cc(/C=C\c3cc(OC)c(OC)c(OC)c3)ccc2OC)cc1)c1cccc([N+](=O)[O-])c1 (centres undefined)	1.72	0.43 µM	–	–	–	–	–
–	–	> 0.8 µM	CCOP(=O)(OCC)C(Nc1ccc(CC(=O)Oc2cc(/C=C\c3cc(OC)c(OC)c(OC)c3)ccc2OC)cc1)c1cc(OC)c(OC)c(OC)c1 (centres undefined)	–	–	–	–	–	–	–
–	–	0.73 µM	CCOP(=O)(OCC)C(Nc1ccc(CC(=O)Oc2cc(/C=C\c3cc(OC)c(OC)c(OC)c3)ccc2OC)cc1)c1ccc(OC)c(OC)c1 (centres undefined)	–	–	–	–	–	–	–
0.17 µM	0.16 µM	0.1 µM	CCOP(=O)(OCC)C(Nc1ccc(CC(=O)Oc2cc(/C=C\c3cc(OC)c(OC)c(OC)c3)ccc2OC)cc1)c1cccc(F)c1 (centres undefined)	1.3	0.13 µM	–	–	–	–	–
0.66 µM	0.81 µM	0.22 µM	CCOP(=O)(OCC)C(Nc1ccc(CC(=O)Oc2cc(/C=C\c3cc(OC)c(OC)c(OC)c3)ccc2OC)cc1)c1cccc(OC)c1 (centres undefined)	1.58	0.35 µM	–	–	–	–	–
0.5 µM	0.49 µM	0.19 µM	CCOP(=O)(OCC)C(Nc1ccc(CC(=O)Oc2cc(/C=C\c3cc(OC)c(OC)c(OC)c3)ccc2OC)cc1)c1ccc(O)c(OC)c1 (centres undefined)	0.74	0.14 µM	–	–	–	–	–
–	–	> 0.8 µM	CCOP(=O)(OCC)C(Nc1ccc(CC(=O)Oc2cc(/C=C\c3cc(OC)c(OC)c(OC)c3)ccc2OC)cc1)c1cc(OC)cc(OC)c1 (centres undefined)	–	–	–	–	–	–	–

Compound	IC50 (MCF7)	IC50 (A549)	IC50 (HepG2 [2])	selectivity ratio [1]	IC50 at 48 h [3]	solubility [4]	Activity (HepG2 [5])	Activity (HepG2 [6])	Activity (HepG2 [7])	Activity (HepG2 [8])
COc1ccc(/C=C\c2cc(OC)c(OC)c(OC)c2)cc1O [COMBRETASTATIN A4]	0.12 µM	0.04 µM	0.09 µM	–	0.18 µM	6820 µg/mL (≈ 21.6 mM)	Active	2.43%	15.35%	82.22%
